Experimental data as given in article PMC3549755, “A comparison of the ability of rilpivirine (TMC278) and selected analogues to inhibit clinically relevant HIV-1 reverse transcriptase mutants” (Retrovirology, 2012).
Read-outs that look alike come from different tables or passages of the source.

How the values were obtained:
[1] = system: viral vector with H221Y mutant HIV-1 RT; assay: single-round infectivity assay, luciferase reporter, H221Y RT vector; assay type: cell-based; settings: Human immunodeficiency virus 1; broader panel, SD in parentheses
Description: (§1) We examined the effects of rilpivirine and the analogues on HIV-1 replication using a previously described assay and report the concentrations at which luciferase reporter activity was reduced by half relative to uninhibited controls (EC50) with standard deviations in parentheses. In the assay, viral vectors that replicate using WT HIV reverse transcriptase or one of several mutants (L100I, K103N, V106A, E138K, Y181C, Y188L, H221Y and the double mutant K103N/Y181C) were used to infect cells in a single round assay. These mutants were chosen either because they are known NNRTI resistance mutations (L100I, K103N, Y181C, and the K103N/Y181C double mutant), they were selected in patients in rilpivirine clinical trials (E138K and H221Y), or they are positioned to make significant Van der Waals contacts with rilpivirine (V106A and Y188L). All compounds were initially screened against a panel that included at least one RT mutant from all three groups (WT, K103N, E138K, Y181C and Y188L). The cytotoxicity of the compounds was also determined to establish the therapeutic index of each of the compounds.
(§2) Procedures for virion production and cell-based assay have been reported. Briefly, all cell cultures were maintained in Dulbecco’s modified Eagle’s medium (Invitrogen, Carlsbad, CA) with 5% (v/v) fetal bovine serum, 5% newborn calf serum, penicillin (50 units/mL) and streptomycin (50 μg/mL) (Quality Biological, Gaithersburg, MD). […]. Transfected cells were incubated at 37°C for 8 hrs, washed twice with PBS, fresh media was added and the cells were returned to the incubator for 48 hrs. The pNLNgoMIVR^+ΔEnv.LUC plasmid encodes the HIV-1 genome with an Env deletion and either WT HIV-1 RT, or one of the following mutants: L100I, K103N, V106A, E138K, Y181C, Y188L, H221Y, or K103N/Y181C. Supernatants from each plate were clarified by low-speed centrifugation (3,000xg for 20 min), then treated with 200 U DNase I (Roche Applied Science, Mannheim, Germany) at room temperature for 3 hours. Viral supernatants were stored at −20°C until used.
(§3) One day prior to infection, 100 μL of human osteosarcoma (HOS) cells were added to each well of a 96-well plate at a density of 4x10^4 cells/mL. Plates were incubated overnight at 37°C. On the day of infection, 10X drug stocks were prepared by serial dilution in media from an initial 10 mM stock solution in DMSO. Cells in the 96-well plate were pre-treated by the addition of 22 μL of the appropriate drug stock and returned to the incubator for 3 hours. Thawed virus stocks were diluted 1:2 in media, then 100 μL of virus was added to the pre-treated cells, bringing the final drug concentrations to 0.1 nM to 100 nM, with DMSO-treated cells (no drug) serving as a reference. In addition, 12 wells of cells treated with media and no virus served as negative controls. Plates were returned to the incubator for an additional 42 hours, at which time the luciferase activity was determined using Steady-Lite Plus kits (PerkinElmer, Waltham, MA). Background luciferase activity, as measured for the negative controls, was subtracted from the activities measured for each infected well. Drug-free, DMSO-treated wells were normalized to 100% infectivity. Infectivity at each drug concentration was determined as a percentage of these drug-free infections. Drug concentration versus percent infectivity was plotted for each RT-inhibitor combination, and the data were fit to a four-parameter sigmoidal curve using KaleidaGraph 4.0 (Synergy Software, Reading, PA). The inflection point of each curve is reported as the IC50. All values are the mean of triplicate infections.

[2] = system: viral vector with Y188L mutant HIV-1 RT; assay: single-round infectivity assay, luciferase reporter, Y188L RT vector; assay type: cell-based; settings: for EC50: Human immunodeficiency virus 1, HOS cells, reduction of luciferase reporter activity, SD in parentheses
Description: as §1, §2, §3

[3] = system: viral vectors that replicate using WT HIV reverse transcriptase; assay: single-round infectivity assay, luciferase reporter, vector with WT RT; assay type: cell-based, HIV-1; settings: SD in parentheses
Description: as §1, §2, §3

[4] = system: viral vector with L100I mutant HIV-1 RT; assay: single-round infectivity assay, luciferase reporter, L100I RT vector; assay type: cell-based; settings: Human immunodeficiency virus 1; broader panel, SD in parentheses
Description: as §1, §2, §3

[5] = system: viral vector with E138K mutant HIV-1 RT; assay: single-round infectivity assay, luciferase reporter, E138K RT vector; assay type: cell-based; settings: for EC50: Human immunodeficiency virus 1, HOS cells, reduction of luciferase reporter activity, SD in parentheses
Description: as §1, §2, §3

HOS cells = assay: cytotoxicity assay (ATP-Lite cell viability); assay type: cell-based, human; settings: ratio of CC50/EC50 (WT)
Procedure: (§4) One day prior to treatment, HOS cells were prepared in 96-well plates as described for the infectivity assays, except that 12 wells per plate were treated with cell-free media to serve as negative controls. The following day, serial dilutions of drug stocks were prepared in media from 10 mM stocks in DMSO. Each well received 11 μL of the appropriate drug concentration or DMSO-treated, drug-free media. Final drug concentrations ranged from 0.5 μM to 300 μM. The drug-free wells served as references. Plates were then incubated at 37°C for 48 hours. Cell viability was determined using luciferase reporter ATP-Lite kits (PerkinElmer). As described for the infectivity assays, drug-free reference wells were normalized to 100%, and viabilities at different drug concentrations were determined as a percentage of these references. Data were plotted and analyzed in the same manner as the IC50 data, with the inflection points of the curves reported as CC50.

[6] = system: viral vector with V106A mutant HIV-1 RT; assay: single-round infectivity assay, luciferase reporter, V106A RT vector; assay type: cell-based; settings: Human immunodeficiency virus 1; broader panel, SD in parentheses
Description: as §1, §2, §3

[7] = system: viral vector with K103N mutant HIV-1 RT; assay: single-round infectivity assay, luciferase reporter, K103N RT vector; assay type: cell-based; settings: Human immunodeficiency virus 1; HOS cells, reduction of luciferase reporter activity, SD in parentheses
Description: as §1, §2, §3

[8] = system: viral vector with K103N/Y181C double mutant HIV-1 RT; assay: single-round infectivity assay, luciferase reporter, K103N/Y181C RT vector; assay type: cell-based; settings: Human immunodeficiency virus 1; broader panel, SD in parentheses
Description: as §1, §2, §3

[9] = system: viral vector with Y181C mutant HIV-1 RT; assay: single-round infectivity assay, luciferase reporter, Y181C RT vector; assay type: cell-based; settings: Human immunodeficiency virus 1; HOS cells, reduction of luciferase reporter activity, SD in parentheses
Description: as §1, §2, §3

[10] = cytotoxicity assay (ATP-Lite cell viability); assay type: cell-based, human; settings: human, HOS cells, 48 hours, SD in parentheses
Procedure: as §4

[11] = Human immunodeficiency virus 1, broader panel table, read-out: EC50 WT (Table S1)
[12] = Human immunodeficiency virus 1, HOS, HOS cells, reduction of luciferase reporter activity, read-out: EC50 WT

Row | SMILES | EC50 [1] | EC50 [2] | loss of potency against Y188L ([2]; compared with rilpivirine (1)) | EC50 [3, 11] | EC50 [4] | EC50 [5] | loss of potency against E138K ([5]; compared with rilpivirine (1)) | Therapeutic Index (T.I.) (HOS cells) | EC50 [6] | EC50 [7] | EC50 [8] | EC50 [9] | EC50 [3, 12] | CC50 at 48 h [10]
1 | Cc1cc(/C=C/C#N)cc(C)c1Nc1nc(Nc2ccc(C#N)cc2)nc2[nH]cnc12 [Analogue 11] | 0.4 nM | 13 ± 0.5 nM | nearly six-fold | 0.1 nM | < 0.1 nM | 2.9 nM | four- to fourteen-fold | 1.2x10^6 | 0.4 nM | 0.1 nM | 1.2 nM | 0.5 nM |  | 
2 | Cc1cc(/C=C/C#N)cc(C)c1Nc1nc(Nc2cc(F)cc(F)c2)c2nc[nH]c2n1 [Analogue 18] |  | > 100 nM |  |  |  | 28 nM |  | 1.4x10^3 |  | 4.9 nM |  | 56 nM | 9.3 nM | 13000 nM
3 | Cc1cc(/C=C/C#N)cc(C)c1Nc1nc(Nc2ccc3nn[nH]c3c2)c2nc[nH]c2n1 [Analogue 25] |  | > 100 nM |  |  |  | > 100 nM |  | 5.3x10^3 |  | > 100 nM |  | > 100 nM | 19 nM | 100000 nM
4 | Cc1cc(/C=C/C#N)cc(C)c1Nc1ncc([N+](=O)[O-])c(Nc2ccc(C#N)cc2)n1 [Analogue 8] | 2.6 nM | 13 nM |  | 0.9 nM | 0.2 nM | 4.9 nM |  | 1.0x10^5 | 0.3 nM | 1 nM | 86 nM | 5.3 nM |  | 
5 | CC(=O)c1ccc(Nc2nc(Nc3c(C)cc(/C=C/C#N)cc3C)nc3[nH]cnc23)cc1 [Analogue 14] |  | 64 nM |  |  |  | 1.5 nM |  | 2.7x10^4 |  | 0.3 nM |  | 5.9 nM | 0.3 nM | 8000 nM
6 | Cc1cc(/C=C/C#N)cc(C)c1Nc1nc(Nc2ccccn2)c2nc[nH]c2n1 [Analogue 19] |  | > 100 nM |  |  |  | > 100 nM |  | < 3.6x10^2 |  | > 100 nM |  | > 100 nM | > 100 nM | 36000 nM
7 | Cc1nc2cc(Nc3nc(Nc4c(C)cc(/C=C/C#N)cc4C)nc4[nH]cnc34)ccc2s1 [Analogue 22] |  | > 100 nM |  |  |  | 8.3 nM |  | 9.5x10^4 |  | 2.2 nM |  | 6.1 nM | 0.6 nM | 57000 nM
8 | Cc1cc(/C=C/C#N)cc(C)c1Nc1nc(Nc2ccc(C#N)cc2)ncc1[N+](=O)[O-] [Analogue 6] | 0.4 nM | 6.8 ± 0.5 nM |  | 0.2 nM | < 0.1 nM | 1.4 nM |  | 1.2x10^5 | 0.1 nM | 0.2 nM | 27 nM | 2.1 nM |  | 24000 nM
9 | Cc1cc(/C=C/C#N)cc(C)c1Nc1nc(Nc2ccc3c(c2)OCO3)c2nc[nH]c2n1 [Analogue 24] |  | 23 nM |  |  |  | 1.6 nM |  | 1.9x10^5 |  | 0.6 nM |  | 3 nM | 0.1 nM | 19000 nM
